Like-named read-outs stand apart in the source and are kept apart here.
Columns and labels:
HOS cells [1] = experiment: In vitro cell viability (MTS assay), HOS; format: cell-based, human
Method: (§1) Parental HOS, 143B, MG-63, IOR/OS18, resistant derived HOS R/MTX and derived PPARγ shRNA or overexpressing PPARγ cell lines were seeded at 5000 cells/well, parental, Saos2, Saos-2B, IOR/OS14, resistant derived HOS R/DOXO and derived PPARγshRNA or overexpressing PPARγ lines were seeded at 10,000 cells/well in a 96-well plate in DMEM supplemented with 10% FBS for both assays.
(§2) The day after seeding, cells were incubated in the presence of a range of drug concentrations for 72 h (from 0 to 100 μmol/L for DOXO, MAF; 0 to 500 μmol/L for MTX, T0070907, Rosiglitazone (RGZ) and Troglitazone (TGZ)). Cell viability was evaluated using the CellTiter 96 Aqueous One Solution Cell Proliferation Assay (MTS assay) (Promega, Charbonnieres, France), according to the manufacturer instructions. The half-maximal inhibitory concentration (IC50) was determined using the GraphPad Prism5 software (Graphpad Software Inc., California, USA).

MAP-217 PT PDX model = experiment: Osteosarcoma orthotopic (paratibial) PDX model MAP-217; format: in vivo, NSG mice; conditions: IP 10 mg/kg/injection daily
Excerpt: Experiments were validated by the CEEA26, Ethic committee (approval number APAFIS #27183-2020091414229028 v3) and carried out under conditions established by the European Community (Directive 2010/63/UE). Animals were purchased at Gustave Roussy (Villejuif, France) and maintained in the respective animal facilities following standard animal regulation, health and care, and ethical controls. Osteosarcoma PDXs were established from relapsed patients by transplantation in immunocompromised NSG mice and considered as established when tumor growth was sustained after at least two in vivo passages. […] Clinical status, tumor uptake and tumor growth will be evaluated one to 3 times a week. Paratibial tumor was detected by palpation and tumor gross appearance (caliper measurements). […] Mice were then anesthetized and bone structure alterations were analyzed by CTscan imaging. […]
Groups of 8 animals bearing the same OTS orthotopic PDX model were treated from day 14 after tumor implantation with intraperitoneal (IP) injection (volume of 10 m/kg) every day with either T0070907 (10 mg/Kg/injection) or with vehicle (saline, control group). […] Clinical status, tumor uptake and tumor growth were evaluated each two days. Paratibial tumors were detected by palpation, tumor gross apparition (caliper measurements). […]

[2] = tested on: 8 osteosarcoma parental cell lines; experiment: In vitro cell viability (MTS assay), 72 h; format: cell-based, human
Method: as §1, §2

HOS cells [3] = experiment: RNA sequencing of treated HOS cells; format: cell-based, human; conditions: T0070907 at 25 μM for 24 h
[4] = tested on: 7 human osteosarcoma lines; experiment: MTS cell proliferation assay, 48 and 72 h (first Example 2); format: cell-based; conditions: MTS test
Method: HOS, 143B, MG-63, U2OS and IOR/OS18 cell lines were seeded at 5,000 cells per well, Saos-2, Saos-2-B and IOR/OS14 cell lines were seeded at 10,000 cells per well in a 96-well plate containing a final volume of 100 μl/well and left to settle overnight in DMEM with 10% fetal calf serum.
The cells were treated with different drugs (PPARγ agonists troglitazone (TGZ) or rosiglitazone (RGZ), or PPARγ antagonist T0070907, dissolved in DMSO) at concentrations ranging from 0 μmol/l to 100 μmol/L. The control (untreated cells) get the same volume of DMSO when the cells are treated (10 μl per 1 ml). Cell viability was determined 48 and 72 hours after exposure. Old medium was removed and a solution with MTS/new medium (20 μl of MTS solution−final concentration 0.33 mg/ml) (CellTiter 96 Aqueous One Solution Cell Proliferation Assay; Promega Corporation, Charbonnieres, France) was added. A set of wells were prepared only with MTS/new medium for background subtraction at the same time. An incubation from 1 to 7 hours at 37° C. (cell line metabolism dependent) was performed follow by a colorimetric measurement at 490 nm in an automatic plate reader (Elxb808; Fisher Bioblock Scientific SAS, Illkirch, France).

- IC50 ([4]; read-out: IC50 (cell viability), range over cell lines): 9 to 18 µM
- IC50 ([4]; read-out: median IC50 (cell viability)): 20 µM
SMILES: O=C(Nc1ccncc1)c1cc([N+](=O)[O-])ccc1Cl [T0070907]
- IC50 (HOS cells [1]): 25 µM
- delay to reach 2.5 time the initial leg volume, higher compared to control (MAP-217 PT PDX model): 20%
- lung metastases (MAP-217 PT PDX model; IHC human Ki67 at sacrifice): decreased lung metastases in number and size
- IC50 ([2]; 8 osteosarcoma parental cell lines, read-out: IC50, range over cell lines): 9.3 to 37.4 µM
- IC50 ([2]; all 8 osteosarcoma parental cell lines, read-out: Median IC50): 20 µM
- RNA sequencing: transcription programs induced (HOS cells [3]): induction of pro-apoptotic and osteoblastic differentiation programs

— patent US20240301499A1, “METHOD FOR IDENTIFYING HARD-TO-TREAT OSTEOSARCOMA PATIENTS AT DIAGNOSIS AND IMPROVING THEIR OUTCOME BY PROVIDING NEW THERAPY” (Institut Gustave Roussy, priority 2021, published 2024)
